The results in this text go back to US12139520B2 (priority 2020, dated 2024).

Bridge positions count the residues as written; N and C are the ends. Square brackets hold non-standard residues; d marks the D form. Peptide text beside a SMILES is read from it. Hyp = O=C(O)[C@@H]1C[C@@H](O)CN1 A value given as a limit tells only on which side of the number the result lay.

Data set [1] deals with hAM1 receptor (Homo sapiens, UniProt O60895+Q16602). The data set is described as follows: cAMP assay for in vitro receptor activation, hAM1-R. It counts as cell-based. To be noted: cAMP assay, hAM1 receptor; read-out: hAM1R EC50. The essentials:
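Read-out is intracellular cAMP as a measure of receptor activation. Cells stably overexpressing hAM1 were subcloned to a monoclonal line, then thawed and seeded at 8000 cells/well in DPBS with 0.05% casein and the phosphodiesterase inhibitor IBMX at 0.5 mM.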

The target in data set [2] is T1, hAMY3 receptor (Homo sapiens, UniProt O60896+P30988).
T1 sequence (P30988 25-474): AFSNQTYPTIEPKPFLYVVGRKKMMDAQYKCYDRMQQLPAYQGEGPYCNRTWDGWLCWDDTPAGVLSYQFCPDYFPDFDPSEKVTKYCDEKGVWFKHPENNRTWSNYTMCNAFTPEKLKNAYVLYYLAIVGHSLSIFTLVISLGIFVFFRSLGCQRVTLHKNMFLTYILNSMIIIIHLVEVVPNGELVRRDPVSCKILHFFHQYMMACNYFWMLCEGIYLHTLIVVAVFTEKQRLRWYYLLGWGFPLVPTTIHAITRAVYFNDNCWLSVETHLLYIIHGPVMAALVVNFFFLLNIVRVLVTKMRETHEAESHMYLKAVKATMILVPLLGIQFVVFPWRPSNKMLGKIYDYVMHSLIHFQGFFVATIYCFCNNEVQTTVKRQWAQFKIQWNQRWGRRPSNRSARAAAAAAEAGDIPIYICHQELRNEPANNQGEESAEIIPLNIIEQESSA
T1 sequence (O60896 24-148 partner): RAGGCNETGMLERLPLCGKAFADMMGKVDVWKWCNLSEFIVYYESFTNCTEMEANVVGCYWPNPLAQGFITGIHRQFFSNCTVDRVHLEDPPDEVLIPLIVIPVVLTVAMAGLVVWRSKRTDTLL
The data set can be described thus: cAMP assay for in vitro receptor activation, hAMY3-R. It is filed as cell-based. To be noted: cAMP assay, hAMY3 receptor; read-out: hAMY3R EC50. The method, boiled down: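 Receptor activation was measured as cAMP accumulation in a monoclonal cell line stably overexpressing hAMY3. Stimulation with graded doses lasted 30 min at room temperature in the presence of 0.5 mM IBMX, with human amylin as positive control.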
On the technique in general: Changes in cAMP serve as a functional read-out for many G protein-coupled receptors.

A short description of data set [3]: Physical stability of peptide analogues (Thioflavin T fibrillation). It counts as physicochemical. To be noted: maximum ThT signal normalized between hAMY maximum and buffer background; 40° C., shaking, four days; pH 7 per table title. The method, boiled down: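 Samples are stressed at 40 °C for four days, being shaken at 700 rpm before each 10-min fluorescence reading of 4 μM Thioflavin T. Buffers were pH 4 acetate or pH 7 phosphate. Reported values are smoothed maximum ThT signals as a percentage of the hAMY-to-background range.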

Sequence of hAM1 receptor (Q16602 23-461): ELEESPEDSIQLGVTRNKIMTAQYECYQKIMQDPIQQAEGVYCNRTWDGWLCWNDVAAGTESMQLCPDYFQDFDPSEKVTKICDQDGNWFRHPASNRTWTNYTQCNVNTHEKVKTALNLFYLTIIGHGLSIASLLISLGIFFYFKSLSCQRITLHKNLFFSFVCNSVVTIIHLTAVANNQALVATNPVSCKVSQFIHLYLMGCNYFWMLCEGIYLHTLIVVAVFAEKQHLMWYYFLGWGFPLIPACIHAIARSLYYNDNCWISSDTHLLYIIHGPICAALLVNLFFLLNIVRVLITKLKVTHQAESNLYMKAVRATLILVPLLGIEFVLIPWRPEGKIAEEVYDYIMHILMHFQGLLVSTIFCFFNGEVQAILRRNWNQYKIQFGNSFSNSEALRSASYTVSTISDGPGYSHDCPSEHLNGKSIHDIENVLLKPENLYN
Sequence of hAM1 receptor (O60895 43-175 partner): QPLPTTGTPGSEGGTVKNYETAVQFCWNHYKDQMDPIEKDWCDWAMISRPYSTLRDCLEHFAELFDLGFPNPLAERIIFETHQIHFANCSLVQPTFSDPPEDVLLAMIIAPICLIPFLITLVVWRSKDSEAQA

As a reminder, the EC50 is the concentration needed to bring the measured effect to its halfway point. For the compound `CC[C@H](C)[C@H](NC(=O)[C@H](CCC(N)=O)NC(=O)[C@H](CC(=O)O)NC(=O)[C@H](C)NC(=O)[C@H](CC(C)C)NC(=O)[C@H](Cc1c[nH]c2ccccc12)NC(=O)[C@H](CC(N)=O)NC(=O)[C@@H](NC(=O)[C@@H](NC(=O)[C@@H]1CSSC[C@H](NC(=O)[C@@H](N)CCCNC(=N)N)C(=O)N[C@@H](CC(N)=O)C(=O)N[C@@H](C)C(=O)N[C@@H](CO)C(=O)N[C@@H]([C@@H](C)O)C(=O)N1)[C@@H](C)O)C(C)C)C(=O)N[C@H](C(=O)N[C@@H](CCC(N)=O)C(=O)N[C@@H](Cc1ccccc1)C(=O)N[C@@H](CO)C(=O)N[C@@H](CC(N)=O)C(=O)N[C@@H](CCCCN)C(=O)N[C@@H](CC(=O)O)C(=O)N[C@@H](CCCCN)C(=O)N[C@@H](C)C(=O)N[C@@H](CCC(N)=O)C(=O)N[C@H](C(=O)N[C@@H](CO)C(=O)N1CCC[C@H]1C(=O)N1CCC[C@H]1C(=O)N[C@H](C(=O)N[C@@H](CCC(=O)O)C(=O)N[C@H](C(=O)NCC(=O)N1CCC[C@H]1C(=O)N[C@@H](CC(N)=O)C(=O)N[C@@H](CO)C(=O)N1C[C@H](O)C[C@H]1C(N)=O)C(C)C)[C@@H](C)O)C(C)C)[C@@H](C)O` [compound 307] (H-RCNASTCTVNWLADQITQFSNKDKAQVSPPTEVGPNS[Hyp]-NH2; disulfide 2-7; N-terminus assumed), the results for the EC50 in data set [1] and in data set [2] were greater than 5000 nM and 0.01 nM, respectively. The “Max ThT signal (%)” value in data set [3] stood at 11.200%.

Consider `CC[C@H](C)[C@H](NC(=O)[C@H](C)NC(=O)[C@H](Cc1c[nH]cn1)NC(=O)[C@H](C)NC(=O)[C@H](CC(C)C)NC(=O)[C@H](Cc1c[nH]c2ccccc12)NC(=O)[C@H](CCC(N)=O)NC(=O)[C@@H](NC(=O)[C@@H](NC(=O)[C@@H]1CSSC[C@H](NC(=O)[C@@H](N)CCCCN)C(=O)N[C@@H](CC(N)=O)C(=O)N[C@@H]([C@@H](C)O)C(=O)N[C@@H](C)C(=O)N[C@@H]([C@@H](C)O)C(=O)N1)[C@@H](C)O)C(C)C)C(=O)N[C@@H](Cc1ccc(O)cc1)C(=O)N[C@@H](CCC(N)=O)C(=O)N[C@@H](Cc1ccccc1)C(=O)N[C@H](C(=O)N[C@@H](CC(=O)O)C(=O)N[C@@H](CCCCN)C(=O)N[C@@H](CC(=O)O)C(=O)N[C@@H](CCCCN)C(=O)N[C@@H](CC(=O)O)C(=O)N[C@@H](CC(N)=O)C(=O)N[C@H](C(=O)N[C@@H](C)C(=O)N1CCC[C@H]1C(=O)N1CCC[C@H]1C(=O)N[C@H](C(=O)N[C@@H](CC(N)=O)C(=O)N[C@H](C(=O)NCC(=O)N[C@@H](CO)C(=O)N[C@@H](CC(N)=O)C(=O)NCC(=O)N1C[C@H](O)C[C@H]1C(N)=O)C(C)C)[C@@H](C)O)C(C)C)[C@@H](C)O` [compound 308] (H-KCNTATCTVQWLAHAIYQFTDKDKDNVAPPTNVGSNG[Hyp]-NH2; disulfide 2-7; N-terminus assumed), for which the EC50 was greater than 5000 nM in data set [1] and 0.014 nM in data set [2]. The “Max ThT signal (%)” value in data set [3] was 14.500%.

`CC[C@H](C)[C@H](NC(=O)[C@H](CCC(N)=O)NC(=O)[C@H](Cc1c[nH]cn1)NC(=O)[C@H](C)NC(=O)[C@H](CC(C)C)NC(=O)[C@H](Cc1c[nH]c2ccccc12)NC(=O)[C@H](CCC(N)=O)NC(=O)[C@@H](NC(=O)[C@@H](NC(=O)[C@@H]1CSSC[C@H](NC(=O)[C@@H](N)CCCCN)C(=O)N[C@@H](CC(N)=O)C(=O)N[C@@H]([C@@H](C)O)C(=O)N[C@@H](C)C(=O)N[C@@H]([C@@H](C)O)C(=O)N1)[C@@H](C)O)C(C)C)C(=O)N[C@@H](C)C(=O)N[C@@H](CCC(N)=O)C(=O)N[C@@H](Cc1ccccc1)C(=O)N[C@H](C(=O)N[C@@H](CC(=O)O)C(=O)N[C@@H](CCCCN)C(=O)N[C@@H](CC(=O)O)C(=O)N[C@@H](CCCCN)C(=O)N[C@@H](CC(=O)O)C(=O)N[C@@H](CC(N)=O)C(=O)N[C@H](C(=O)N[C@@H](C)C(=O)N1CCC[C@H]1C(=O)N1CCC[C@H]1C(=O)N[C@H](C(=O)N[C@@H](CC(N)=O)C(=O)N[C@H](C(=O)NCC(=O)N[C@@H](CO)C(=O)N[C@@H](CC(N)=O)C(=O)NCC(=O)N1C[C@H](O)C[C@H]1C(N)=O)C(C)C)[C@@H](C)O)C(C)C)[C@@H](C)O` [compound 309] (H-KCNTATCTVQWLAHQIAQFTDKDKDNVAPPTNVGSNG[Hyp]-NH2; disulfide 2-7; N-terminus assumed): the EC50 in data set [1] is greater than 5000 nM; in data set [2], 0.025 nM. Further, in data set [3], the “Max ThT signal (%)” value was determined as 4.250%.

Turning to `CC[C@H](C)[C@H](NC(=O)[C@H](CCC(N)=O)NC(=O)[C@H](CC(=O)O)NC(=O)[C@H](C)NC(=O)[C@H](CC(C)C)NC(=O)[C@H](Cc1c[nH]c2ccccc12)NC(=O)[C@H](C)NC(=O)[C@@H](NC(=O)[C@@H](NC(=O)[C@@H]1CSSC[C@H](NC(=O)[C@@H](N)CCCCN)C(=O)N[C@@H](CC(N)=O)C(=O)N[C@@H]([C@@H](C)O)C(=O)N[C@@H](CO)C(=O)N[C@@H]([C@@H](C)O)C(=O)N1)[C@@H](C)O)C(C)C)C(=O)N[C@H](C(=O)N[C@@H](CCC(N)=O)C(=O)N[C@@H](Cc1ccccc1)C(=O)N[C@@H](CO)C(=O)N[C@@H](CC(=O)O)C(=O)N[C@@H](CCCCN)C(=O)N[C@@H](CC(=O)O)C(=O)N[C@@H](CCCCN)C(=O)N[C@@H](C)C(=O)N[C@@H](CC(N)=O)C(=O)N[C@H](C(=O)N[C@@H](CO)C(=O)N1CCC[C@H]1C(=O)N1CCC[C@H]1C(=O)N[C@H](C(=O)N[C@@H](CCC(=O)O)C(=O)N[C@H](C(=O)NCC(=O)N1CCC[C@H]1C(=O)N[C@@H](CC(N)=O)C(=O)N[C@@H](CO)C(=O)N1C[C@H](O)C[C@H]1C(N)=O)C(C)C)[C@@H](C)O)C(C)C)[C@@H](C)O` [compound 310] (H-KCNTSTCTVAWLADQITQFSDKDKANVSPPTEVGPNS[Hyp]-NH2; disulfide 2-7), the EC50 is greater than 5000 nM in data set [1] and 0.003 nM in data set [2]. Moreover, the “Max ThT signal (%)” value in data set [3] stood at 3.500%.

Turning to `CC[C@H](C)[C@H](NC(=O)[C@H](CCC(N)=O)NC(=O)[C@H](Cc1c[nH]cn1)NC(=O)[C@H](C)NC(=O)[C@H](CC(C)C)NC(=O)[C@H](Cc1c[nH]c2ccccc12)NC(=O)[C@H](CCC(N)=O)NC(=O)[C@@H](NC(=O)[C@@H](NC(=O)[C@@H]1CSSC[C@H](NC(=O)[C@@H](N)CCCCN)C(=O)N[C@@H](CC(N)=O)C(=O)N[C@@H]([C@@H](C)O)C(=O)N[C@@H](C)C(=O)N[C@@H]([C@@H](C)O)C(=O)N1)[C@@H](C)O)C(C)C)C(=O)N[C@@H](Cc1ccc(O)cc1)C(=O)N[C@@H](CCC(N)=O)C(=O)N[C@@H](Cc1ccccc1)C(=O)N[C@H](C(=O)N[C@@H](CC(=O)O)C(=O)N[C@@H](CCCCN)C(=O)N[C@@H](CC(=O)O)C(=O)N[C@@H](CCCCN)C(=O)N[C@@H](CC(=O)O)C(=O)N[C@@H](CC(N)=O)C(=O)N[C@H](C(=O)N[C@@H](C)C(=O)N1CCC[C@H]1C(=O)N[C@@H](CCCNC(=N)N)C(=O)N[C@H](C(=O)N[C@@H](CCCCN)C(=O)N[C@H](C(=O)NCC(=O)N[C@@H](CO)C(=O)N[C@@H](CC(N)=O)C(=O)NCC(=O)N1C[C@H](O)C[C@H]1C(N)=O)C(C)C)[C@@H](C)O)C(C)C)[C@@H](C)O` [compound 312] (H-KCNTATCTVQWLAHQIYQFTDKDKDNVAPRTKVGSNG[Hyp]-NH2; disulfide 2-7; N-terminus assumed), the EC50 in data set [1] is greater than 5000 nM; in data set [2], 0.012 nM. Besides, the “Max ThT signal (%)” value in data set [3] stood at 17.000%.

In the case of `CC[C@H](C)[C@H](NC(=O)[C@H](CCC(N)=O)NC(=O)[C@H](Cc1c[nH]cn1)NC(=O)[C@H](C)NC(=O)[C@H](CC(C)C)NC(=O)[C@H](Cc1c[nH]c2ccccc12)NC(=O)[C@H](CCC(N)=O)NC(=O)[C@@H](NC(=O)[C@@H](NC(=O)[C@@H]1CSSC[C@H](NC(=O)[C@@H](N)CCCCN)C(=O)N[C@@H](CC(N)=O)C(=O)N[C@@H]([C@@H](C)O)C(=O)N[C@@H](C)C(=O)N[C@@H]([C@@H](C)O)C(=O)N1)[C@@H](C)O)C(C)C)C(=O)N[C@@H](Cc1ccc(O)cc1)C(=O)N[C@@H](CCC(N)=O)C(=O)N[C@@H](Cc1ccccc1)C(=O)N[C@@H](C)C(=O)N[C@@H](CC(=O)O)C(=O)N[C@@H](CCCCN)C(=O)N[C@@H](CC(=O)O)C(=O)N[C@@H](CCCCN)C(=O)N[C@@H](CC(=O)O)C(=O)N[C@@H](CC(N)=O)C(=O)N[C@H](C(=O)N[C@@H](C)C(=O)N1CCC[C@H]1C(=O)N1CCC[C@H]1C(=O)N[C@H](C(=O)N[C@@H](CC(N)=O)C(=O)N[C@H](C(=O)NCC(=O)N[C@@H](CO)C(=O)N[C@@H](CC(N)=O)C(=O)NCC(=O)N1C[C@H](O)C[C@H]1C(N)=O)C(C)C)[C@@H](C)O)C(C)C` [compound 313] (H-KCNTATCTVQWLAHQIYQFADKDKDNVAPPTNVGSNG[Hyp]-NH2; disulfide 2-7; N-terminus assumed), the EC50 in data set [1] is greater than 5000 nM; in data set [2] it was 0.004 nM. Besides, in data set [3], the “Max ThT signal (%)” value is 15.050%.
